Assay [1] has as its system SD IGS rats. Nature of the assay: Evaluation of defecation-promoting action. It counts as in vivo, rat. The note with it: oral, 90 minutes after administration, per cage. An excerpt:
Evaluation of Defecation-Promoting Action
The defecation-promoting action of the adenosine A2b receptor-inhibiting compound which was identified by measuring the binding ability and inhibitory ability thereof to the adenosine receptor in Test Example 1, a salt thereof, a hydrate of them, or a pharmaceutical composition containing it can be evaluated on the basis of the following method. That is, SD IGS rats (6 weeks-old, from Charles River) were placed in cages (3 animals/cage) and preliminarily allowed food and water ad libitum and raised for 1 week. Then, a tared water-absorbing sheet was placed below each cage, and the animals were fasted but allowed water ad libitum throughout the experiment. After 1.5 hours, the fecal pellets were recovered from each cage and observed for abnormality before the experiment. The compound suspended or dissolved in 0.5% (w/v) methyl cellulose (MC) was orally administered in a dose of 5 ml/kg. On one hand, 0.5% (w/v) MC only was orally given to the control group. After administration of the compound, the rats were returned to the cage provided with a new water-absorbing sheet, and 90 minutes after the administration, the fecal pellets on the water-absorbing sheet were recovered from each cage, and the external appearance was observed, and then counted and weighed. The number of fecal pellets is expressed per each cage. After the fecal pellets were recovered, the water-absorbing sheet was weighed, and the weight determined by subtracting the initial weight of the water-adsorbing sheet from the weight after the experiment was regarded as the volume of urine.

Assay [2] has as its target T1, adenosine A2a receptor (Homo sapiens, UniProt P29274).
T1 construct: purchased Receptor Biology Inc
Nature of the assay: Measurement of the ability to bind to adenosine A2a receptor (3H-CGS21680 binding inhibition). The note with it: A2a receptor membrane sample, 3H-CGS21680, Cheng-Prusoff. The protocol:
Measurement of the Ability to Bind to Adenosine A2a Receptor
An experiment of inhibition of binding to adenosine A2a receptor was conducted using a membrane sample (Receptor Biology Inc.) where an adenosine A2a receptor cDNA was expressed in excess. This membrane sample was added at a protein concentration of 22.2 μg/ml to, and suspended in, 20 mM HEPES buffer, pH 7.4 (10 mM MgCl2 and 100 mM NaCl). To 0.45 ml of this membrane sample suspension were added 0.025 ml of 500 nM tritium-labeled 2-p-[2-carboxyethyl]phenetylamino-5′-N-ethylarboxyamide adenosine (^3H—CGS21680, from NEN) and 0.025 ml test compound. This mixture was left at 25° C. for 90 minutes, filtered rapidly under suction through a glass fiber filter (GF/B, from Whatman), and immediately washed twice with 5 ml of 50 mM water-cooled Tris-HCl buffer. Thereafter, the glass fiber filter was transferred to a vial, a scintillator was added thereto, and the radioactivity on the filter was measured by a liquid scintillation counter. The inhibition of binding of ^3H—CGS21680 to A2a receptor by the test compound was determined using the following formula, and from this inhibition, 50% inhibition concentration (IC50) was calculated.
Inhibition (%)=[1−{binding in the presence of the test compound-nonspecific binding)/(total binding-nonspecific binding)}]×100
Here, the total binding means ^3H—CGS21680-bound radioactivity in the absence of the test compound; the nonspecific binding means ^3H—CGS21680-bound radioactivity in the presence of 100 μM RPIA; and the binding in the presence of the test compound means ^3H—CGS21680-bound radioactivity in the […] of the test compound at predetermined concentrations. The inhibition constant (Ki value) in the table was determined from the formula of Cheng-Prusoff.

In assay [3] the target is T2, human adenosine A2b receptor (Homo sapiens, UniProt P29275).
T2 construct: expressed in transfected cells; host or cells: CHOK1 cells
T2 sequence (P29275 1-332): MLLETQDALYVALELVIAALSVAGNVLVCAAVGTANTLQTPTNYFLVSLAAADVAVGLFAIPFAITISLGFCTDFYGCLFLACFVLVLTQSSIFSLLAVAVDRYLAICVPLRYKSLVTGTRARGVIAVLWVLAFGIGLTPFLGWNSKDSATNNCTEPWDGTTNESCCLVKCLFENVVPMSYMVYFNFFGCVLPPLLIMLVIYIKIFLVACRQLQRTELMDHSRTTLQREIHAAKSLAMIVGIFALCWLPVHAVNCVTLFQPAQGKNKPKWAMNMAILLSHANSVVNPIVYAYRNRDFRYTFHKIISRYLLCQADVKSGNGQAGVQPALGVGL
Nature of the assay: Inhibition of NECA-stimulated production of cAMP in adenosine A2b receptor-expressing cells. It counts as cell-based. The note with it: CHOK1 cells expressing human A2b receptor, 30 nM NECA. The protocol:
Experiment of Inhibition of NECA-stimulated Production of cAMP in Adenosine A2b Receptor-expressing Cells
CHOK1 cells where a human adenosine A2b receptor had been expressed in excess were plated onto a 24-well plate at a density of 1.5×10^5 cells/well, cultured overnight, and used in the experiment. The degree of inhibitory effect of the test compound on the amount of cAMP produced by stimulation with 30 nM 5′-N-ethylcarboxyamide adenosine (NECA from Sigma) was evaluated in terms of affinity for A2b receptor. That is, the adhering cells were washed twice with 2 ml/well Krebs-Ringer buffer solution (containing 0.1% BSA; pH 7.4) and pre-incubated for 30 minutes in a volume of 0.5 ml/well. Then, a mixed solution containing NECA and the test compound was added in a volume of 0.1 ml/well in the presence of a phosphodiesterase inhibitor Ro-20-1724 (a product of RBI). After pre-incubation for 15 minutes, the reaction was terminated with 0.1 N HCl in a volume of 300 μl/well. Measurement of intracellular cAMP was carried out using a cAMP enzyme immunoassay kit produced by Amersham. The inhibition of NECA-stimulated production of cAMP by the test compound was determined using the following equation:
Inhibition (%)=[1−{(amount of cAMP in the coexistence of NECA and the test compound-amount of CAMP in only the Krebs-Ringer buffer solution)/(amount of CAMP upon stimulation with NECA only-amount of cAMP in only the Krebs-Ringer buffer solution)}]×100

In assay [4] the target is T3, human adenosine A1 receptor (Homo sapiens, UniProt P30542).
T3 construct: expressed in transfected cells; host or cells: CHOK1 cells (membrane sample)
T3 sequence (P30542 1-326): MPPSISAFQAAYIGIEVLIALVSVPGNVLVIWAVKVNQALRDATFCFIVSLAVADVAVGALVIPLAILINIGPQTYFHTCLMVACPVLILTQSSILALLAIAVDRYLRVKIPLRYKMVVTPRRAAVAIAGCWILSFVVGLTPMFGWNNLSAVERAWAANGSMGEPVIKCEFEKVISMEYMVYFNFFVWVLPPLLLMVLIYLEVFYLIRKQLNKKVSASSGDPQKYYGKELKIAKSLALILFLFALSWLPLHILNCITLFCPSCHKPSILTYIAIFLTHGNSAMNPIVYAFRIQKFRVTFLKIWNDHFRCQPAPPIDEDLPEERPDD
Nature of the assay: Measurement of the ability to bind to adenosine A1 receptor (3H-CCPA binding inhibition). The note with it: membrane of CHOK1 cells expressing human A1 receptor, Cheng-Prusoff. As to the method:
Measurement of the Ability to Bind to Adenosine A1 Receptor
A human adenosine A1 receptor cDNA was expressed in excess in CHOK1 cells, and this membrane sample was added at a protein concentration of 66.7 μg/ml to, and suspended in, 20 mM HEPES buffer, pH 7.4 (10 mM MgCl2, 100 mM NaCl). To 0.45 ml of this membrane sample suspension were added 0.025 ml of 60 nM tritium-labeled chlorocyclopentyl adenosine (^3H—CCPA, from NEN Ltd.) and 0.025 ml test compound. This mixture was left at 30° C. for 120 minutes, filtered rapidly under suction through a glass fiber filter (GF/B, from Whatman), and immediately washed twice with 5 ml of 50 mM water-cooled Tris-HCl buffer. Thereafter, the glass fiber filter was transferred to a vial, a scintillator was added thereto, and the radioactivity on the filter was measured by a liquid scintillation counter. The inhibition of binding of ^3H—CCPA to A1 receptor by the test compound was determined using the following formula, and from this inhibition, 50% inhibition concentration (IC50) was calculated (the following equation).
Inhibition (%)=[1−{binding in the presence of the test compound-non-specific binding)/(total binding-non-specific binding)}]×100
In the above formula, the total binding means ^3H—CCPA-bound radioactivity in the absence of the test compound; the non-specific binding means ^3H—CCPA-bound radioactivity in the presence of 100 μM RPIA ([R]-[1-methyl-2-phenylethyl] adenosine); and the binding in the presence of the test compound means ^3H—CCPA-bound radioactivity in the presence of the test compound at predetermined concentrations. The inhibition constant (Ki value) in the table was determined from the formula of Cheng-Prusoff.

T1 sequence (P29274 whole entry): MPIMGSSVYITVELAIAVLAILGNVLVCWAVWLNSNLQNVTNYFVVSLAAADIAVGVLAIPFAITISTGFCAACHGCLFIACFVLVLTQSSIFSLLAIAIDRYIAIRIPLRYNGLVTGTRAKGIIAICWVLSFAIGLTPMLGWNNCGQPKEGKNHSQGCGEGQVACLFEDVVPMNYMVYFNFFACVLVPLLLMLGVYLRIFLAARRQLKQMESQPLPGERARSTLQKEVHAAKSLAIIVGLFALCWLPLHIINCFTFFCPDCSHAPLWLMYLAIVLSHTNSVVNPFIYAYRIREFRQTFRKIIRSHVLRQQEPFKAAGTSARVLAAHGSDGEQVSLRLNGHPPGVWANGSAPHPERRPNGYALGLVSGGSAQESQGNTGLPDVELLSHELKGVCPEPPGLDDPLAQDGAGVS

By Ki is commonly meant a dissociation constant, usually derived from enzyme kinetics or from competition with a known ligand. A high value points to weaker binding. By IC50 is commonly meant the concentration needed to halve the response being measured. Low values mean greater potency in that assay, high ones weaker potency in that assay. For the compound “2-Amino-6-(fluorophenyl)-5-(4-pyridyl)-3-pyridinecarbonitrile [Example 2]”, the entries for the “The number of fecal pellets” value in assay [1] (1 mg/kg) and in assay [1] (10 mg/kg) were 7.80 ± 0.20 and 18.00 ± 1.30, respectively. Moreover, the Ki in assay [2] is 22 nM; in assay [4] it was 66 nM. Also, the IC50 in assay [3] was 3.7 nM.
For `CCn1cc(-c2cc(C#N)c(N)nc2-c2ccco2)ccc1=O` [Example 5, 2-Amino-5-(1-ethyl-6-oxo-1,6-dihydro-3-pyridinyl)-6-(2-furyl)nicotinonitrile], the “The number of fecal pellets” value in assay [1] (1 mg/kg) was 7.00 ± 1.23; in assay [1] (3 mg/kg) it was 14.25 ± 3.38. The Ki in assay [2] was determined as 7 nM; in assay [4], 400 nM. The compound further returned an IC50 in assay [3] of 6.5 nM.
Regarding `N#Cc1cc(-c2ccncc2)c(-c2ccco2)nc1N` [Example 1, 2-Amino-6-(2-furyl)-5-(4-pyridyl)-3-pyridinecarbonitrile], the “The number of fecal pellets” value in assay [1] (1 mg/kg) was 1.75 ± 1.03; in assay [1] (3 mg/kg), 7.25 ± 1.65; in assay [1] (10 mg/kg) it was 22.25 ± 2.93. The Ki in assay [2] came out at 23 nM; in assay [4] it was 990 nM. Besides, half-maximal inhibition in assay [3] (IC50) required 2.7 nM.

The record behind these values is US6750232B2, “2-aminopyridine compounds and use thereof as drugs” (Eisai Co., Ltd., priority 2000, dated 2004).
